A short description of data set [1]: Stability in presence of human DcpS assessed as complete degradation at 40 uM by HPLC-based assay. It counts as ADME.
In data set [2] the target is T1, Eukaryotic translation initiation factor 4E (Oryctolagus cuniculus, UniProt P29338). The data set can be described thus: Inhibition of eukaryotic initiation factor 4E in micrococcal nuclease-pretreated rabbit reticulocyte lysate assessed as inhibition of rabbit beta-[…] mRNA translation by [3H]leucine incorporation assay.
The target in data set [3] is T1, Eukaryotic translation initiation factor 4E. The data set can be described thus: Inhibition of eukaryotic initiation factor 4E in micrococcal nuclease-pretreated rabbit reticulocyte lysate assessed as inhibition of m7,3'-O-GpppG-capped 5'UTRbetaglob-LUC mRNA translation by luciferase-based luminometry.
Data set [4] shares this target. Put plainly: Inhibition of eukaryotic initiation factor 4E in micrococcal nuclease-pretreated rabbit reticulocyte lysate assessed as inhibition of m7,3'-O-GpppG-capped 5'UTRbetaglob-LUC mRNA translation treated 60 mins before mRNA addition by luciferase-based luminometry.
In data set [5] the target is Eukaryotic translation initiation factor 4E (Mus musculus) (UniProt P63073).
Description: Binding affinity to mouse eukaryotic initiation factor 4E expressed in Escherichia coli BL21(DE3) by fluorescence quenching titration method

pIC50: −log10 of the molar value.

T1 sequence (P29338 whole entry): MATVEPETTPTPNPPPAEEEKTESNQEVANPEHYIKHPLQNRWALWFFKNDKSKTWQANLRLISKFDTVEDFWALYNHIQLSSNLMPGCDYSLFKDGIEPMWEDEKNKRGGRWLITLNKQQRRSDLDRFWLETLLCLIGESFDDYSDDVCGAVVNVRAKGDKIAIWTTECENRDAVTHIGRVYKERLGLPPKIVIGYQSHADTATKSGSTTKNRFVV
Sequence of Eukaryotic translation initiation factor 4E (Mus musculus) (P63073 whole entry): as the sequence (P29338 whole entry) above, with P12T counted along it

As to `C[n+]1cn([C@@H]2O[C@H](CO[P@](=O)(S)OP(=O)(O)OP(=O)(O)OC[C@H]3O[C@@H](n4cnc5c(=O)[nH]c(N)nc54)[C@H](O)[C@@H]3O)[C@@H](O)[C@H]2O)c2nc(N)[n-]c(=O)c21`, in data set [1], the Stability result was “Stable”. Further, the figures for the pIC50 in data set [2], in data set [3] and in data set [4] were 5.39, 5.96 and 5.92, respectively.
As to `C[n+]1cn([C@@H]2O[C@H](COP(=O)([O-])OP(=O)(O)OP(=O)(O)O)[C@@H](O)[C@H]2O)c2nc(N)[nH]c(=O)c21`, the Stability result in data set [1] is “Unstable”.
For `C[n+]1cn([C@@H]2O[C@H](CO[P@](=O)(S)OP(=O)([O-])OP(=O)(O)O)[C@@H](O)[C@H]2O)c2nc(N)nc(O)c21`, the Stability entry in data set [1] is on record as “Stable”. Further, the Ka in data set [5] was 371 µM⁻¹. Also, the negative logarithm of the IC50 (pIC50) in data set [3] and in data set [4] was 6.25 in each case.
For the molecule `C[n+]1cn([C@@H]2O[C@H](COP(=O)(O)OP(=O)([O-])OP(=O)(O)OC[C@H]3O[C@@H](n4cnc5c(=O)[nH]c(N)nc54)[C@H](O)[C@@H]3O)[C@@H](O)[C@H]2O)c2nc(N)[nH]c(=O)c21`, the Stability result in data set [1] was “Unstable”. Also, the results for the negative logarithm of the IC50 (pIC50) in data set [2], in data set [3] and in data set [4] were 4.77, 5.08 and more than 4.70, respectively.
As to `C[n+]1cn([C@@H]2O[C@H](CO[P@@](=O)(S)OP(=O)(O)OP(=O)([O-])O)[C@@H](O)[C@H]2O)c2c1C(O)NC(N)=N2` (stereo not given in full), the Ka in data set [5] came to 190 µM⁻¹.
In data set [5], `C[n+]1cn([C@@H]2O[C@H](COP(=O)(O)OP(=O)([O-])OP(=O)(O)OC[C@H]3O[C@@H](n4cnc5c(=O)[nH]c(N)nc54)[C@H](O)[C@@H]3O)[C@@H](O)[C@H]2O)c2nc(N)nc(O)c21` registered a Ka of 9.4 µM⁻¹.
Consider `C[n+]1cn([C@@H]2O[C@H](CO[P@@](=O)(S)OP(=O)([O-])OP(=O)(O)OC[C@H]3O[C@@H](n4cnc5c(=O)[nH]c(N)nc54)[C@H](O)[C@@H]3O)[C@@H](O)[C@H]2O)c2nc(N)nc(O)c21`, for which the Stability entry in data set [1] is recorded as “Stable”. The molecule further returned a Ka in data set [5] of 10 µM⁻¹. Moreover, the results for the pIC50 in data set [2], in data set [3] and in data set [4] were 4.92, 5.42 and 5.68, respectively.

By pIC50 is commonly meant the negative decadic logarithm of the IC50, by convention in mol/L.
